# Measurements from patent US20150320706A1, “FORMULATIONS AND METHODS OF TREATING ALZHEIMER'S DISEASE AND OTHER PROTEINOPATHIES BY COMBINATION THERAPY” (CHIESI FARMACEUTICI S.P.A., priority 2014, published 2015).
# Entries after “also recorded” stand apart in the source; their conditions may differ.
# Columns and labels:
# [1] = in vivo, cited from earlier work
# [2] = test system: human APP transgenic mice models of AD; settings: transgenic mouse models of AD; cited from earlier work
# [3] = test system: sCD40L and TNF-α; test: Neuroinflammation biomarkers in cerebrospinal fluid of MCI patients; type: in vivo, human; settings: MCI patients, 200, 400 and 600 mg/day
# Experimental: (§1) Methods: At the end of a 14-week double-blind, placebo-controlled study in 96 MCI patients evaluating three titrated dose regimens of CHF 5074 (200, 400 and 600 mg/day), patients were given the option to enter a 76-week open label extension study. Patients received CHF 5074 at the dose equal to that of their originally assigned double-blind study cohort. Patients were monitored for vital signs, cardiac activity, neuropsychological performance and safety laboratory parameters.
# [4] = test system: Aβ42; settings: in vitro; cited from earlier work
# [5] = test system: MCI (mild cognitively impaired) patients; test: Safety and tolerability after prolonged treatment in MCI patients; type: in vivo, human
# Experimental: (§2) In Example 1, the safety and tolerability and cognitive effects of CHF 5074 was analyzed after prolonged treatment in MCI (mild cognitively impaired) patients.
# as §1
# [6] = test system: Notch; settings: cited from earlier work
# [7] = test system: microglia; settings: response to an Aβ42 stimulus; cited from earlier work
# [8] = test system: TNF-α and soluble CD 40 ligand (sCD40L); settings: healthy subjects and individuals with MCI; cited from earlier work
# [9] = test system: MCI (mild cognitively impaired) patients; test: Cognitive tests in open label extension study of CHF 5074 in MCI patients; type: in vivo, human
# Experimental: as §2, §1
# [10] = test system: cognitively normal elderly subjects; settings: cited from earlier work
# [11] = test system: patients with mild cognitive impairment (MCI); settings: cited from earlier work
# [12] = test system: β-amyloid; settings: cited from earlier work
# [13] = APOE4 non-carriers, Study Week 64
# β-amyloid, sequence (P05067 672-711 limits assumed): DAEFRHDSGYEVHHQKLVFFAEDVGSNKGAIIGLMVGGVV
molecule,measurement,setting,value
"O=C(O)C1(c2ccc(-c3ccc(Cl)c(Cl)c3)c(F)c2)CC1 [CHF 5074, 1-(3′,4′-dichloro-2-fluorobiphenyl-4-yl)cyclopropanecarboxylic acid]",oral absorption,[1]; po,good oral absorption
same,brain penetration,[1],satisfactory brain penetration
same,half-life,[1],long half-life
same,brain plaque deposition,[2],prevent brain plaque deposition; also recorded: inhibit brain plaque deposition
same,memory deficits,[2],attenuate memory deficits; also recorded: attenuate or reverse associated memory deficits
same,neuroinflammation biomarkers (CSF sCD40L and TNF-α),[3],dose-dependently lowered
same,Aβ42 inhibitory activity,[4],selective Aβ42 inhibitory activity
same,"diarrhea, patients reporting",[5]; 200 mg/day,1.4%
same,"diarrhea, patients reporting",[5]; 400 mg/day,6.3%
same,drop-outs for adverse events,"[5]; 400 mg/day group, at Study Week 40 (pneumonia)",one
same,"diarrhea, patients reporting",[5]; 600 mg/day,16.0%
same,drop-outs for adverse events,"[5]; 600 mg/day group, at Study Week 40 (serum creatinine elevation and worsening of cognitive function)",two
same,safety profile,[5]; MCI patients,acceptable safety profile
same,tolerability,[5]; prolonged treatment at doses up to and including 400 mg/day,well tolerated
same,effects on Notch processing,[6],lack of effects on Notch processing
same,M1 inflammatory activity of microglia,[7],blunting or inhibiting M1 inflammatory activity
same,M2 phagocytic responses of microglia,[7],stimulating M2 phagocytic responses
same,"CSF biomarkers of neuroinflammation, TNF-α and sCD40L",[8],"lowers, in a dose-dependent fashion"
same,"verbal memory, week 88 change from baseline, comparison of doses",[9]; 200 mg/day and 400 mg/day compared to 600 mg/day (FIG. 1),surprisingly superior
same,verbal memory at week 88 (number of words),[9]; 200 mg/day and 400 mg/day doses (FIG. 8),dose-dependent improvement
same,improvements as share of Baseline scores,"[9]; APOE4 carriers, Immediate Word Recall and Trail Making Test-A, Study Week 64",25-38%
same,"Immediate Word Recall, improvement compared to Baseline","[9]; APOE4 carriers, Study Week 64, p=0.012 vs non-carriers",+5.4±1.2 words
same,"Trail Making Test-A, improvement compared to Baseline","[9]; APOE4 carriers, Study Week 64, p=0.034 vs non-carriers",-12.4 ± 2.8 s
same,"Immediate Word Recall, improvement compared to Baseline",[9]; [13],+1.4±0.9 words
same,"Trail Making Test-A, improvement compared to Baseline",[9]; [13],-5.6 ± 3.3 s
same,"Digit Symbol Substitution Test, improvement compared to Baseline","[9]; interim analysis, 32 patients reaching Study Week 64, p<0.001",+4.8±1.1 matches
same,"Immediate Word Recall, improvement compared to Baseline","[9]; interim analysis, 32 patients reaching Study Week 64, p=0.001",+2.9±0.8 words
same,"Trail Making Test-A, improvement compared to Baseline","[9]; interim analysis, 32 patients reaching Study Week 64, p=0.002",-8.1 ± 2.4 s
same,"Delayed Word Recall, improvement compared to Baseline","[9]; interim analysis, 32 patients reaching Study Week 64, p=0.003",+1.3±0.4 words
same,"Trail Making Test-B, improvement compared to Baseline","[9]; interim analysis, 32 patients reaching Study Week 64, p=0.004",-14.5 ± 4.6 s
COc1ccc2cc([C@H](C)C(=O)O)ccc2c1 [naproxen],protection from the onset of AD compared to placebo,[10]; 4-year follow-up assessment,67%
same,incidence of dementia,[10]; after two years of treatment,neither drug reduced the incidence of dementia
CS(=O)(=O)c1ccc(C2=C(c3ccccc3)C(=O)OC2)cc1 [rofecoxib],outcome of secondary prevention study,[11],negative
MABT5102A: humanized monoclonal antibody against human Aβ1-40 and Aβ1-42 with an IgG4 backbone which reduces effector function,binding to β-amyloid species,[12],"binds to soluble, oligomeric and fibrillar β-amyloid deposits"
